For 19 compounds, IC50 results are on record in BindingDB's records for doi:10.1016/j.bmcl.2004.10.091 (Martin-Luther-University Halle-Wittenberg, 2005).

For orientation: IC50 means the concentration that gives 50% inhibition.

Sequence of Cyclin-dependent kinase 1/G2/mitotic-specific cyclin-B (Q9DGD3 whole entry): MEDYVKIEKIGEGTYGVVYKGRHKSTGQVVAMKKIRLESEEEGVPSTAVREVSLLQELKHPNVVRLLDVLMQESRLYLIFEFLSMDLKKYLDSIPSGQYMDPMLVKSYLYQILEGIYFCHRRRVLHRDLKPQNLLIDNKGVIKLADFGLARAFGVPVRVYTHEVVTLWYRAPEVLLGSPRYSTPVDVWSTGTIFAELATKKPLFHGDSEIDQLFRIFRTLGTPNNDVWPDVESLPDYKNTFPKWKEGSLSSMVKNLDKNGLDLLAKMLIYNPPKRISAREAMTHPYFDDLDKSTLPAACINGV
Sequence of Cyclin-dependent kinase 1/G2/mitotic-specific cyclin-B (P15206 whole entry): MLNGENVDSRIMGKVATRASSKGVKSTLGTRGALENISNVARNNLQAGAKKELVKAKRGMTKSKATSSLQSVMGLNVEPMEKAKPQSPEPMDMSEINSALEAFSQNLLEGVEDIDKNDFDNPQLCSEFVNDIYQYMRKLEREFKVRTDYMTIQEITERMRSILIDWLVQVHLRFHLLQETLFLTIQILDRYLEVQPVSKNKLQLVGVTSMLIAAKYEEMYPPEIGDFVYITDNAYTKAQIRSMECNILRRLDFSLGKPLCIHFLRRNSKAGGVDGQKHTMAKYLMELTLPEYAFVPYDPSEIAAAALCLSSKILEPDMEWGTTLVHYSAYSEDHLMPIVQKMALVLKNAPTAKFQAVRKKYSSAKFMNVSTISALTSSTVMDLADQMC

The target of one assay is Cyclin-dependent kinase 1/G2/mitotic-specific cyclin-B (Marthasterias glacialis, UniProt P15206+Q9DGD3). The assay is described as follows: Kinase Inhibition Assay. Particulars: pH 7.2; 30 °C. On the procedure:
(§1) Kinase activities were assayed in buffers containing substrate, enzyme, and inhibitor at 30 °C in the presence of 15 uM ATP/ [gamma-32P] ATP. 32P incorporation was measured with a scintillation counter. The IC50 is the inhibitor concentration, which inhibits 50% of kinase activity that catalyzes the transfer of the terminal phosphate from 32P labeled ATP to the substrate.
As to `Oc1ccc2oc3ncc(Cl)c(-c4ccccc4)c3c2c1` [4-chloro-3-phenyl-8-oxa-6-azatricyclo[7.4.0.0^{2,7}]trideca-1(13),2(7),3,5,9,11-hexaen-12-ol], the IC50 is above 100 µM.
As to `CCOc1cnc2oc3ccc(O)cc3c2c1-c1ccccc1` [4-ethoxy-3-phenyl-8-oxa-6-azatricyclo[7.4.0.0^{2,7}]trideca-1(13),2(7),3,5,9,11-hexaen-12-ol], the IC50 is above 100 µM.
With `Cc1cnc2oc3ccc(O)cc3c2c1-c1ccccc1` [4-methyl-3-phenyl-8-oxa-6-azatricyclo[7.4.0.0^{2,7}]trideca-1(13),2(7),3,5,9,11-hexaen-12-ol], the IC50 is above 100 µM.

The target in another assay is Glycogen synthase kinase-3 beta (Rattus norvegicus, UniProt P18266). The assay is described as follows: Kinase Inhibition Assay. The conditions noted are these: 30 °C. On the procedure: as §1
Sequence of Glycogen synthase kinase-3 beta (P18266 whole entry): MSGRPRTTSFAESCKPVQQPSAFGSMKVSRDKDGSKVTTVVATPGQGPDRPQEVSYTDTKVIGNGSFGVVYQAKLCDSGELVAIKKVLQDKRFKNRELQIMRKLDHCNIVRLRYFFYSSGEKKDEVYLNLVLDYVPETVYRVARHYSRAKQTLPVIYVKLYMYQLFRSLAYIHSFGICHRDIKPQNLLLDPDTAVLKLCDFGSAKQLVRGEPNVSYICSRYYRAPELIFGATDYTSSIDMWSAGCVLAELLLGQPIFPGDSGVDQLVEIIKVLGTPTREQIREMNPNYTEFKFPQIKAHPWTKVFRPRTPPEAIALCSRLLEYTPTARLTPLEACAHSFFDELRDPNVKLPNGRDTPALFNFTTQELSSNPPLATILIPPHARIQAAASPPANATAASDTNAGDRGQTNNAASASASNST
`CC(C)c1cnn2c(Nc3ccc(S(=O)(=O)N(C)C)cc3)cc(NC3CCCC(N)C3)nc12` (centres undefined) [4-({5-[(3-aminocyclohexyl)amino]-3-(propan-2-yl)pyrazolo[1,5-a]pyrimidin-7-yl}amino)-N,N-dimethylbenzene-1-sulfonamide] returned an IC50 above 50 µM.
Same read-out and setting: to `CC(C)c1cnn2c(Nc3ccc(S(=O)(=O)N(C)C)cc3)cc(N[C@H]3CC[C@H](N)CC3)nc12` [4-({5-[(4-aminocyclohexyl)amino]-3-(propan-2-yl)pyrazolo[1,5-a]pyrimidin-7-yl}amino)-N,N-dimethylbenzene-1-sulfonamide] belongs 40 µM; to `CN(C)S(=O)(=O)c1ccc(Nc2cc(N[C@H]3CC[C@H](N)CC3)nc3c(Br)cnn23)cc1Cl` [4-({5-[(4-aminocyclohexyl)amino]-3-bromopyrazolo[1,5-a]pyrimidin-7-yl}amino)-2-chloro-N,N-dimethylbenzene-1-sulfonamide], 8.7 µM; to `CN(C)S(=O)(=O)c1ccc(Nc2cc(N[C@H]3CC[C@H](N)CC3)nc3c(Br)cnn23)cc1` [4-({5-[(4-aminocyclohexyl)amino]-3-bromopyrazolo[1,5-a]pyrimidin-7-yl}amino)-N,N-dimethylbenzene-1-sulfonamide], 3.4 µM.
Still for that read-out and setting: to `CN(C)S(=O)(=O)c1ccc(Nc2cc(N[C@H]3CC[C@H](N)CC3)nc3c(Cl)cnn23)cc1` [4-({5-[(4-aminocyclohexyl)amino]-3-chloropyrazolo[1,5-a]pyrimidin-7-yl}amino)-N,N-dimethylbenzene-1-sulfonamide] belongs 5.1 µM; to `CN(C)S(=O)(=O)c1ccc(Nc2cc(N[C@H]3CC[C@H](N)CC3)nc3c(C#N)cnn23)cc1` [4-({5-[(4-aminocyclohexyl)amino]-3-cyanopyrazolo[1,5-a]pyrimidin-7-yl}amino)-N,N-dimethylbenzene-1-sulfonamide], 0.46 µM; to `CN(C)S(=O)(=O)c1ccc(Nc2cc(N[C@H]3CC[C@H](N)CC3)nc3c(C4CCCC4)cnn23)cc1` [4-({5-[(4-aminocyclohexyl)amino]-3-cyclopentylpyrazolo[1,5-a]pyrimidin-7-yl}amino)-N,N-dimethylbenzene-1-sulfonamide], 22 µM.
`CC(C)c1cnn2c(Nc3ccc(S(=O)(=O)N(C)C)cc3)cc(O[C@H]3CC[C@H](N)CC3)nc12` [4-({5-[(4-aminocyclohexyl)oxy]-3-(propan-2-yl)pyrazolo[1,5-a]pyrimidin-7-yl}amino)-N,N-dimethylbenzene-1-sulfonamide] yielded an IC50 of 28 µM. This IC50 and that of the compound before are within 1.5-fold of each other.
On to `CCN(CC)[C@H]1CC[C@H](Nc2cc(Nc3ccc(S(=O)(=O)N(C)C)cc3)n3ncc(C(C)C)c3n2)CC1` [4-[(5-{[4-(diethylamino)cyclohexyl]amino}-3-(propan-2-yl)pyrazolo[1,5-a]pyrimidin-7-yl)amino]-N,N-dimethylbenzene-1-sulfonamide], for which the IC50 was above 50 µM.
On the same count and under the same terms, as for `CCN[C@H]1CC[C@H](Nc2cc(Nc3ccc(S(=O)(=O)N(C)C)cc3)n3ncc(C(C)C)c3n2)CC1` [4-[(5-{[4-(ethylamino)cyclohexyl]amino}-3-(propan-2-yl)pyrazolo[1,5-a]pyrimidin-7-yl)amino]-N,N-dimethylbenzene-1-sulfonamide], the figure is above 50 µM; as for `Brc1cccc(-c2cc(NCc3ccncc3)n3nccc3n2)c1` [5-(3-bromophenyl)-N-(pyridin-4-ylmethyl)pyrazolo[1,5-a]pyrimidin-7-amine], 0.96 µM; as for `N[C@H]1CC[C@H](Nc2cc(Nc3ccc(S(=O)(=O)c4ccccc4)cc3)n3ncc(Br)c3n2)CC1` [5-N-(4-aminocyclohexyl)-7-N-[4-(benzenesulfonyl)phenyl]-3-bromopyrazolo[1,5-a]pyrimidine-5,7-diamine], 5.3 µM.
Turning to `CC(C)c1cnn2c(Nc3ccc(S(C)(=O)=O)cc3)cc(Cl)nc12` [5-chloro-N-(4-methanesulfonylphenyl)-3-(propan-2-yl)pyrazolo[1,5-a]pyrimidin-7-amine], inhibition was half-maximal at 11 µM (IC50).
The same measure, in the same setting: as for `CS(=O)(=O)c1ccc(Nc2cc(Cl)nc3ccnn23)cc1` [5-chloro-N-(4-methanesulfonylphenyl)pyrazolo[1,5-a]pyrimidin-7-amine], the figure is 3.1 µM; as for `CC(C)COc1cc(Nc2ccc(S(=O)(=O)N(C)C)cc2)n2ncc(C(C)C)c2n1` [N,N-dimethyl-4-{[5-(2-methylpropoxy)-3-(propan-2-yl)pyrazolo[1,5-a]pyrimidin-7-yl]amino}benzene-1-sulfonamide], 50 µM.
Same read-out and setting: as for `CC(C)COc1cc(Nc2ccc(S(C)(=O)=O)cc2)n2ncc(C(C)C)c2n1` [N-(4-methanesulfonylphenyl)-5-(2-methylpropoxy)-3-(propan-2-yl)pyrazolo[1,5-a]pyrimidin-7-amine], the figure is 12 µM.
